The values that follow come from patent US20230339878A1, “SLC26A3 INHIBITORS AND USE THEREOF” (THE REGENTS OF THE UNIVERSITY OF CALIFORNIA, priority 2018, published 2023).

For one series, the target named is T1, murine slc26a3 (Mus musculus, UniProt Q9WVC8).
T1 construct: host or cells: Fischer rat thyroid (FRT) cells expressing YFP, clonal line FRT-YFP-slc26a3
T1 sequence (Q9WVC8 1-757): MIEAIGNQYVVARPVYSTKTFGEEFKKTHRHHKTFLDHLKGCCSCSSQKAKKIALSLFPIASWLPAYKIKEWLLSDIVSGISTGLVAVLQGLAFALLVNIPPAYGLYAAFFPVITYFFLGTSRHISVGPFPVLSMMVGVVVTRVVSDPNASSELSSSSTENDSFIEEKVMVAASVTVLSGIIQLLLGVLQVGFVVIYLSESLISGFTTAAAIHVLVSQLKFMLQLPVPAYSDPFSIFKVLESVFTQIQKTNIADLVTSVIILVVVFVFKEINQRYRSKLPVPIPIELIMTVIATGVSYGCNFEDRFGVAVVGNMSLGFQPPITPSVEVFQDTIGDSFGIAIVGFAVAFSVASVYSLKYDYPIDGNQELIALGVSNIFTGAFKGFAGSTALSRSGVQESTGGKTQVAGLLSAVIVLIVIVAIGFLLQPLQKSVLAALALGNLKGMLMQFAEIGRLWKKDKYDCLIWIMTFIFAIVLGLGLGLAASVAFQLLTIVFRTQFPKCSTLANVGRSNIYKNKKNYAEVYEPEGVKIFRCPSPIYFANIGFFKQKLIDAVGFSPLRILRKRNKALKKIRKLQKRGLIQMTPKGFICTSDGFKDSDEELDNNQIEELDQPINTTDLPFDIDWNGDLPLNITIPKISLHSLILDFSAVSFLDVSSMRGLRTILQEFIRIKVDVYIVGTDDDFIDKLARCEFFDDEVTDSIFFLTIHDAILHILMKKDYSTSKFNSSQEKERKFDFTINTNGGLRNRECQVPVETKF
The series is described as follows: slc26a3-mediated Cl-/I- exchange, YFP fluorescence quenching in FRT-YFP-slc26a3 cells. Type of series: cell-based. As for the experimental part: High-throughput screening to identify slc26a3 inhibitors using FRT-YFP- slc26a3 cells was done with a semi-automated Beckman Coulter (Indianapolis, IN) platform with FLUOstar OMEGA plate readers (BMG Labtech, Cary, NC), essentially as described for discovery of pendrin inhibitors. Initial screening was done of ~50,000 drug-like synthetic small molecules (ChemDiv, San Diego, CA) at a concentration of 25 µM using a Cl^-/I^- exchange protocol to assay slc26a3 function. Following initial screening, compound analogs were purchased (ChemDiv, San Diego, CA) to generate structure-activity data.
For the screening, FRT-YFP-slc26a3 cells were plated in 96-well black-walled, clear-bottom tissue culture plates (Corning Life Sciences, Tewksbury, MA) at a density of 20,000 cells/well and cultured for 48 hours until confluent. For screening, cells were washed twice in PBS and incubated for 10 min in 100 µl PBS containing test compounds prior to assay of slc26a3 function. Assays were done using a FLUOstar OMEGA plate reader (BMG Labtech, Cary, NC) over 12 s with initial fluorescence recorded over 1 s prior to addition of 100 µl NaI-substituted PBS (137 mM NaCl replaced by 137 mM NaI) to drive Cl^-/I^- exchange. The initial rate of Cl^-/I^- exchange was determined from fluorescence intensity by single exponential regression. All plates contained wells with negative (1 % DMSO) and positive (350 µM niflumic acid) controls.
Screening was done using an FRT cell line stably expressing murine slc26a3 and a halide-sensitive yellow fluorescent protein (FRT-YFP- slc26a3 cells). FRT cells were used because of their low intrinsic permeability to anions that are transported by slc26a3, and because of their good adherence and rapid growth on uncoated plastic. As diagrammed in FIG. 1A, slc26a3-mediated transport was assayed from the kinetics of YFP fluorescence quenching in response to extracellular addition of I^- to drive Cl^-/I^- exchange; transport inhibition reduces the rate of fluorescence decrease.

For series [1], the system named is loperamide-treated wild-type mice. Kind of series: Loperamide-induced constipation model in wild-type mice. Type of series: in vivo. Conditions: 5 mg/kg oral gavage 1 hour before loperamide, wild-type mice. On the procedure: Female CD1 mice (age 8-10 weeks) were administered loperamide (0.3 mg/kg, intraperitoneally, Sigma-Aldrich) to produce constipation. Compound A1 (DRAinh-A250) (5 mg/kg, in saline containing vehicle (5% DMSO and 10% Kolliphor HS 15; Sigma-Aldrich)), tenapanor (5 mg/kg, in vehicle), both compounds (5 mg/kg each, in vehicle), or vehicle alone were administered by oral gavage 1 hour before loperamide. After loperamide injection, mice were placed individually in metabolic cages with ad libitum access to food and water. Stool samples were collected for 3 h, and total stool weight and number of fecal pellets were quantified. To measure stool water content, stool samples were dried at 80° C. for 24 h and water content was calculated as [wet weight-dry weight]/wet weight. Similar studies were done in cystic fibrosis (CF) mice (ΔF508 homozygous) lacking functional CFTR.
Constipation Model in MiceDRAinh-A260 and DRAinh-A270 were tested in a loperamide-induced constipation model in mice. Female CD1 mice (age 8-10 weeks) were administered loperamide (0.3 mg/kg, intraperitoneally, in 5% ethanol in PBS, 0.1 mg/mL final concentration) to produce constipation and vehicle in control mice. DRAinh-A260 (5 mg/kg, in saline with 5% DMSO and 10% Kolliphor HS 15) or DRAinh-A270 (1, 3 or 10 mg/kg, in PBS with 5% DMSO and 20% (2- hydroxypropyl)-β-cyclodextrin) or vehicle alone were administered by oral gavage 1 hour before loperamide (FIG. 11A). After loperamide injection, mice were placed individually in metabolic cages with free access to food and water. Stool samples were collected for 3 hours, and total stool weight and number of fecal pellets were quantified. To measure stool water content, stool samples were dried at 80° C. for 24 hours and water content was calculated as [wet weight-dry weight]/wet weight.

The nature of series [2]: Pharmacokinetics in mice, serum LC/MS. Type of series: in vivo. As for the experimental part: Pharmacokinetics of the Compound A1(DRAinh-A250) and analogs (DRAinh-A260 and DRAinh-A270) was determined in mice. After single dose intraperitoneal or oral administration (5 mg/kg for Compound A1 and DRAinh-A260, 10 mg/kg for DRAinh-A270), blood samples were collected via retro-orbital puncture at different time points and serum was separated by centrifugation. Compound concentrations were measured in serum using LC/MS. FIGS. 10A, 10B, 10C show the respective serum concentration of Compound A1 (FIG. 10A), DRAinh-A260 (FIG. 10B) and DRAinh-A270 (FIG. 10C) after single oral or intraperitoneal administration at zero time (n=3 mice per compound per administration route). Compound A1 had predicted therapeutic levels for at least 24 hours after single dose oral or intraperitoneal administration. […] (mean±SEM): 53.9±6.5% for Compound A1, 16.4±6.6% for DRAinh-A260, and 39.3±3.5% for DRAinh-A270.

Where [3] appears, read: representative Class A compounds, Table 3, read-out: IC50.

Entries after “also recorded” stand apart in the source; their conditions may differ. Read-outs that look alike come from different tables or passages of the source.

For `Cc1c(CC(=O)O)c(=O)oc2c(C)c(OCc3ccc(Cl)c(Cl)c3)ccc12` [Compound A7], on murine slc26a3 (selected class A analogs, Table 1, Cl-/I- exchange, read-out: IC50), the IC50 was 1800 nM.

For the compound `Cc1c(CC(=O)O)c(=O)oc2c(C)c(OCc3cccc([N+](=O)[O-])c3)ccc12` [Compound A253], the IC50 on murine slc26a3 (setting [3]) worked out at 500 nM. Same read-out and setting: the result for `Cc1c(CC(=O)O)c(=O)oc2c(C)c(OCc3cccc(C4CC4)c3)ccc12` [Compound A261] reads 70 nM; that for `Cc1c(CC(=O)O)c(=O)oc2c(C)c(OCc3cc(C(F)(F)F)cc(C(F)(F)F)c3)ccc12` [Compound A263], 15000 nM. On to `Cc1c(CC(=O)O)c(=O)oc2c(C)c(OCc3cc(C(F)(F)F)ccc3F)ccc12` [Compound A266], for which, at murine slc26a3 (setting [3]), the IC50 was found to be 100 nM. The same measure, in the same setting: the result for `Cc1c(CC(=O)O)c(=O)oc2c(C)c(OCc3ccccc3I)ccc12` [Compound A269] reads 4500 nM; that for `CCCCCCOc1ccc2c(C)c(CC(=O)O)c(=O)oc2c1C` [Compound A278], 1500 nM. As for `Cc1c(CC(=O)O)c(=O)oc2c(C)c(OC3CCCC3)ccc12` [Compound A279], the IC50 at murine slc26a3 (setting [3]) worked out at 4500 nM.

For the compound `Cc1c(CC(=O)O)c(=O)oc2c(C)c(OCC3CCC3)ccc12` [Compound A280], the IC50 on murine slc26a3 (setting [3]) is 3400 nM.

In the case of `Cc1c(CC(=O)O)c(=O)oc2c(C)c(OCC3CCCC3)ccc12` [Compound A281], the IC50 at murine slc26a3 (setting [3]) was found to be 1800 nM. The same measure, in the same setting: the result for `Cc1c(CC(=O)O)c(=O)oc2c(C)c(OCc3ccc(C(F)(F)F)o3)ccc12` [Compound A286] reads 300 nM. What is called bioavailability is dose-corrected exposure relative to a reference, in per cent. Turning to `Cc1c(CC(=O)O)c(=O)oc2c(C)c(OCc3cccc(C(F)(F)F)c3)ccc12` [DRAinh-A260], the IC50 at murine slc26a3 (setting [3]) worked out at 25 nM. The “three-hour stool weight, number of pellets and stool water content” value in series [1] was “improving stool weight, pellet number and water content; also recorded: improves 3-hour stool weight, pellet number and water content”. The same compound registered an oral bioavailability in series [2] (5 mg/kg (A1, A260) or 10 mg/kg (A270), mice) of 16%. Moreover, in series [2] (5 mg/kg single dose oral or intraperitoneal), the “serum level time course” value is “high serum levels initially; also recorded: almost complete disappearance of compound from serum at 16 hours”. In series [2] (mouse, serum, po, 5 mg/kg (A1, A260) or 10 mg/kg (A270), mice, n=3, read-out: oral bioavailability (mean±SEM)), the bioavailability worked out at 16.4 ± 6.6%.

Consider `O=C(O)c1cccnc1Nc1cccc(C(F)(F)F)c1` [niflumic acid, reference compound], for which the “inhibition of slc26a3, positive control” value against murine slc26a3 (350 µM) is listed as “strongly inhibited”. At murine slc26a3 (read-out: IC50 for inhibition of slc26a3-mediated Cl-/I- exchange), the IC50 was around 60000 nM.
